# Experimental data published in patent US11702402B2, “Small molecules that block proteasome-associated ubiquitin receptor RPN13 function and uses thereof” (DANA-FARBER CANCER INSTITUTE, INC., priority 2018, dated 2023).
# Entries after “also recorded” stand apart in the source; their conditions may differ.
# Experiments:
# MM.1S cells = conditions: human, 48 h
# Protocol: FIGS. 4A and 4B show multiple myeloma 1S (MM.1S) cells treated with RA190, WL40, and WL44 at the indicated concentrations for 24 hours. Wst-1 assay was used to test cell viability.
# In FIG. 13B, multiple myeloma cells (MM.1S) were treated with RA190 or compound JQRA at the indicated concentrations for 72 hours, and the percentage of viable cells was measured.
# Purified CD138^+ patient MM cells, which were treated with DMSO control or WL40 at indicated concentrations for 48 hours, followed by assessment for cell viability using CellTiter-Glo assay (mean±SD of triplicate cultures; p<0.001). […] Normal PBMCs from healthy donors were treated with DMSO control or WL40 at indicated concentrations for 48 hours, and then analyzed for cell viability using CellTiter-Glo assay (mean±SD of quadruplicate cultures). […] MM.1S cells were cultured with or without patient BMSCs in the presence or absence of WL40 for 48 hours, and cell proliferation was measured by WST assay (mean±SD; n=3; p<0.0001). […] MM.1S cells were cultured with or without patient pDCs in the presence or absence of WL40 for 48 hours, and cell proliferation was measured by WST assay (mean±SD; n=3; p<0.0001).
# [1] = test system: polyubiquitinated (PolyUb) protein; assay: Polyubiquitinated protein immunoblot in MM.1S and ANBL6.BR cells; type: cell-based, Human; conditions: MM.1S: WL40 200 nM, RA190 300 nM, bortezomib 5 nM; ANBL6.BR: WL40 1 μM 6 hours
# Protocol: MM.1S cells, which were treated with DMSO control, bortezomib, or WL40 at indicated concentration for 3 hours; protein lysates were analyzed for different proteasome activities (CT-L, chymotrypsin-like; T-L, trypsin-like; C-L, caspase-like). FIG. 20B is a bar graph showing percent proteasome activity after normalization with DMSO control (mean±SD; n=3). Recombinant 20S proteasome was incubated with DMSO, bortezomib, or WL40 for 30 minutes, followed by assessment of the above-noted proteasome activities. FIG. 20C MM.1S cells were pretreated with exemplary proteasome inhibitor MG132 (10 μM) for 1 hour, followed by addition of WL40 (400 nM) for 8 hours. […] Total protein lysates were subjected to immunoblots for Rpn13 and α-tubulin. […] FIG. 20E ANBL6.BR cells were treated with WL40 (400 nM) or RA190 (500 nM) for 16 hours; protein lysates were subjected to immunoblot analysis using anti-Rpn13 or anti-β-actin Abs.
# Cellular protein extracts were prepared using RIPA lysis buffer (50 mM Tris-HCl, 150 mM NaCl, 1% NP-40, 0.5% sodium deoxycholate, and 0.1% SDS). […]
# Next, the effect of WL40 on additional MM cell lines, including p53-mutated RPMI-8226 cells or bortezomib-resistant ANBL6.BR cells, was evaluated. […]
# RPN13 = RPN13 (Homo sapiens, UniProt Q16186); assay: Rpn13 flow cytometry in MM.1S cells; type: cell-based; parameters: endogenous in cells; host or cells: MM.1S; MM.1S-CRBN KO; RPMI-8226; ANBL6.BR; conditions: WL40 (400 nM) 16 hours, versus DMSO or RA190 (500 nM)
# Chain of RPN13 (Q16186 whole entry): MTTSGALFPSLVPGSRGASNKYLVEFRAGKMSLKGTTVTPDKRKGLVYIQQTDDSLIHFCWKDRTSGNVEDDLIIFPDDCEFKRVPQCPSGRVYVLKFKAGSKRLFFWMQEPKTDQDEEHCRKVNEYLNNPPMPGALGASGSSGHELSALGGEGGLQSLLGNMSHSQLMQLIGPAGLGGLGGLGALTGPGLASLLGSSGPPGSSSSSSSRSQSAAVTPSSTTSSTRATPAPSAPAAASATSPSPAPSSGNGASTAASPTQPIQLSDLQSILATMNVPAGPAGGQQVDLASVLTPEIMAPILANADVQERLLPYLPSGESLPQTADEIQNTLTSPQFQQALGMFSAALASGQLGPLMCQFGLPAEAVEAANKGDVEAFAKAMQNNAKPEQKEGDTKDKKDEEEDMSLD
# Protocol: FIGS. 19A-19I show the exemplary design and characterization of exemplary Rpn13 degrader WL40. […] WL40 was created by linking the Rpn13 inhibitor RA190 to the IMiD thalidomide as a ligand for the CRBN E3 ligase via a PEG linker. […] FIG. 19C is a schematic cartoon for the novel AlphaScreen assay to measure the binding activity of inhibitor with RPN13 proteins. […] FIG. 19E depicts immunoblot analysis of multiple myeloma 1S (MM.1S) cells, which were treated with WL40 or RA190 at the indicated concentrations and time periods; protein lysates were subjected to the immunoblot analysis using anti-Rpn13 or anti-tubulin Abs. FIG. 19F depicts flow cytometry analysis of MM.1S cells, which were treated with DMSO control, WL40 (400 nM), or RA190 (500 nM) for 16 hours; cells were then washed and stained with Rpn13 Ab conjugated with AlexaFluor-647, followed by the flow cytometry analysis. […] Data was quantified using FACS Diva (BD Biosciences, USA) and FlowJo (FlowJo LLC, USA). […]
# Next, it was examined whether WL40 decreases cellular Rpn13 levels in MM cells. MM.1S cells were treated with various concentrations of WL40 (20 0 nM, 400 nM, or 800 nM) for 4 hours, 8 hours, and 16 hours; protein lysates were then analyzed for Rpn13 levels using immunoblot analysis. […] To further corroborate the findings, MM.1S cells were treated with WL40, and then analyzed intracellular alterations in Rpn13 using flow cytometry.
smiles,measurement,setting,value
O=C1CCC(N2C(=O)c3cccc(NCCOCCOCCOCCC(=O)N[C@@H](Cc4ccccc4)C(=O)N4C/C(=C\c5ccc(Cl)c(Cl)c5)C(=O)/C(=C/c5ccc(Cl)c(Cl)c5)C4)c3C2=O)C(=O)N1 (stereo partly drawn) [WL40],cytotoxicity (cell viability),MM.1S cells,more cytotoxic than the parental Rpn13 inhibitor RA190
same,PolyUb protein accumulation (immunoblot),[1],marked increase in PolyUb proteins; also recorded: more rapid and higher molecular weight PolyUb versus bortezomib
same,Rpn13 expression (flow cytometry),RPN13,significant reduction in Rpn13 expression
